This data set can be described thus: Accelerated stability study of pranoprofen batches (impurity content by HPLC). Type of data set: physicochemical. To be noted: 40° C.±2° C., RH 75%±5%; for Maximum single impurity: maximum unknown single impurity. The method, then: In the present invention, unless otherwise specified, the accelerated experiment is carried out under the conditions of 40° C.±2° C. and RH75%±5% in accordance with the regulations in the “Technical Guidelines for Stability Research of Chemical Drugs”; preferably, an average value of 3 samples measured in parallel is taken.
In the present invention, unless otherwise specified, the content of each impurity or total impurities is measured by high performance liquid chromatography. Preferably, the chromatographic conditions comprise: using octadecylsilane-bonded silica gel as filler (5 μm, 250 mm×4.6 mm); using 0.05 mol/L sodium perchlorate aqueous solution-methanol (90:10, adding perchloric acid to adjust pH to 3.2) as mobile phase A, methanol as mobile phase B, following the gradient elution in Table 10, flow rate of 1.0 ml/min, column temperature of 40° C., detection wavelength of 275 nm.
In accordance with the relevant regulations in the “Technical Guidelines for Stability Research of Chemical Drugs”, the samples of the above three batches were taken and tested for 6 months under the conditions of 40° C.±2° C. and RH 75%±5%. And at the end of the 0th, 1st, 2nd, 3rd and 6th months of the experiment, the samples were taken for the detection of indicators.
The experiment was carried out according to the high performance liquid chromatography (the General Rule 0512 of the Chinese Pharmacopoeia, 2015 edition), in which octadecylsilane bonded silica gel was used as filler (5 μm, 250 mm×4.6 mm); 0.05 mol/L sodium perchlorate aqueous solution-methanol (90:10, adjusted to pH 3.2 by adding perchloric acid) was used as mobile phase A, methanol was used as mobile phase B, and gradient elution was carried out according to the table below, flow rate was 1.0 ml/min, column temperature was 40° C., and detection wavelength was 275 nm.
10 μl of the test solution was precisely taken and injected into the liquid chromatograph. If there were impurity peaks in the chromatogram of the test solution, a single impurity must not exceed 0.1%, and the sum of impurities must not exceed 0.5%.
The impurity objects to be detected were total impurity, impurity A, impurity C, impurity D, impurity L and maximum single impurity; and the detection conditions were the same as above.
Preparation of test solution: 50 mg of this product was taken, dissolved in a solvent (acetonitrile-water=1:1) and diluted to 50 ml to obtain the test solution.
Control stock solution of mixed impurities: 10.0 mg of each of impurities A, C, D, and L were weighed, respectively, and added to 10.0 ml volumetric flask, respectively, then added with methanol for dissolution and dilution to the mark, 1.0 ml of each of the above solutions was taken and added to 100.0 ml volumetric flask, then added with solvent for dilution to the mark to obtain the control stock solution of impurities.
Control solution of mixed impurities: 1.0 ml of the test solution was accurately taken, and added with solvent for dilution to 100.0 ml; 1.0 ml of the above solution was accurately taken, added with 1.0 ml of the control stock solution of mixed impurities, and added with solvent to 10.0 ml to obtain the control solution of mixed impurities.
Preparation of system suitability solution: 1.0 ml of the control stock solution of mixed impurities was accurately taken, and added with the test solution for dilution to 10 ml to obtain the system suitability solution.
Preparation of control solution: 1.0 ml of the test solution was taken, and added with solvent for dilution to 10.0 ml; 1.0 ml of the above solution was taken, and added with solvent for dilution to 100.0 ml to obtain the control solution.

With `CC(C(=O)O)c1ccc2c(c1)Cc1cccnc1O2` (stereo not drawn) [Compound 20190101, pranoprofen], where the note is “0th month”, the “Impurity A” value is reported as “Impurity A: 0.05%”, the “Impurity D” value was “Impurity D: 0.02%”, the “Impurity L” value was “Impurity L: 0.02%” and the Total impurities entry was “Total impurities: 0.09%”. Besides, for the setting “1st month after acceleration”, the “Impurity A” value is “Impurity A: 0.03%”, the “Impurity D” value was “Impurity D: 0.02%”, the “Impurity L” value was “Impurity L: 0.01%” and the Total impurities result was “Total impurities: 0.06%”. In addition, where the note is “2nd month after acceleration”, the “Impurity A” value is recorded as “Impurity A: 0.04%”, the “Impurity D” value was “Impurity D: 0.02%”, the “Impurity L” value is “Impurity L: 0.01%” and the Total impurities result is on record as “Total impurities: 0.07%”. Also, for the setting “3rd month after acceleration”, the “Impurity A” value is listed as “Impurity A: 0.06%”, the “Impurity D” value was “Impurity D: 0.01%”, the “Impurity L” value is “Impurity L: 0.02%” and the Total impurities entry was “Total impurities: 0.08%”. Under “6th month after acceleration”, the “Impurity A” value is given as “Impurity A: 0.06%”, the “Impurity C” value is on record as “Impurity C 0.03%”, the “Impurity D” value is “Impurity D: 0.02%” and the “Impurity L” value is reported as “Impurity L: 0.02%”. Further, under “6th month after acceleration”, the Total impurities result is “Total impurities: 0.17%” and the Maximum single impurity result is on record as “impurity: 0.02%”.
For `CC(C(=O)O)c1ccc2c(c1)Cc1cccnc1O2` (stereo not drawn) [Compound 20190201, pranoprofen], under “0th month”, the “Impurity A” value is “Impurity A: 0.07%”, the “Impurity D” value is reported as “Impurity D: 0.02%”, the “Impurity L” value is “Impurity L: 0.01%” and the Total impurities entry is on record as “Total impurities: 0.10%”. In addition, for the setting “1st month after acceleration”, the “Impurity A” value was “Impurity A: 0.07%”, the “Impurity D” value is on record as “Impurity D: 0.03%”, the “Impurity L” value was “Impurity L: 0.01%” and the Total impurities entry is reported as “Total impurities: 0.11%”. Further, for the setting “2nd month after acceleration”, the “Impurity A” value is recorded as “Impurity A: 0.07%”, the “Impurity D” value is given as “Impurity D: 0.02%”, the “Impurity L” value was “Impurity L: 0.01%” and the Total impurities entry is listed as “Total impurities: 0.10%”. In addition, where the note is “3rd month after acceleration”, the “Impurity A” value is given as “Impurity A: 0.07%”, the “Impurity D” value was “Impurity D: 0.02%”, the “Impurity L” value is on record as “Impurity L: 0.02%” and the Total impurities result is recorded as “Total impurities: 0.11%”. For the same molecule, under “6th month after acceleration”, the “Impurity A” value was “Impurity A: 0.10%”, the “Impurity C” value is listed as “Impurity C 0.03%”, the “Impurity D” value is on record as “Impurity D: 0.01%” and the “Impurity L” value was “Impurity L: 0.02%”. For the same molecule, under “6th month after acceleration”, the Total impurities entry is “Total impurities: 0.24%” and the Maximum single impurity result is “impurity: 0.08%”.
For the molecule `CC(C(=O)O)c1ccc2c(c1)Cc1cccnc1O2` (stereo not drawn) [Compound 20190202, pranoprofen], where the note is “0th month”, the “Impurity A” value is given as “Impurity A: 0.02%”, the “Impurity D” value is listed as “Impurity D: 0.02%”, the “Impurity L” value is recorded as “Impurity L: 0.01%” and the Total impurities entry is listed as “Total impurities: 0.05%”. Moreover, under “1st month after acceleration”, the “Impurity A” value was “Impurity A: 0.05%”, the “Impurity D” value is recorded as “Impurity D: 0.01%”, the “Impurity L” value is listed as “Impurity L: 0.02%” and the Total impurities entry is “Total impurities: 0.06%”. Further, where the note is “2nd month after acceleration”, the “Impurity A” value is on record as “Impurity A: 0.04%”, the “Impurity D” value is reported as “Impurity D: 0.02%”, the “Impurity L” value is on record as “Impurity L: 0.01%” and the Total impurities entry is “Total impurities: 0.07%”. Besides, for the setting “3rd month after acceleration”, the “Impurity A” value is “Impurity A: 0.04%”, the “Impurity D” value is “Impurity D: 0.02%”, the “Impurity L” value is reported as “Impurity L: 0.01%” and the Total impurities entry is on record as “Total impurities: 0.07%”. In addition, for the setting “6th month after acceleration”, the “Impurity A” value is given as “Impurity A: 0.09%”, the “Impurity C” value is listed as “Impurity C 0.01%”, the “Impurity D” value is on record as “Impurity D: 0.01%” and the “Impurity L” value is listed as “Impurity L: 0.02%”. Under “6th month after acceleration”, the Total impurities result is “Total impurities: 0.15%” and the Maximum single impurity result is “impurity: 0.02%”.

The record behind these values is US20240343738A1, “Method for preparing pranoprofen and composition comprising pranoprofen and impurity” (SHENYANG XINGQI PHARMACEUTICAL CO., LTD., priority 2021, published 2024).
